How the values were obtained:
[1] = system: interferon-stimulated genes (ISGs) and cytokines in peripheral blood; experiment: single oral administration in monkeys: tolerability, ISG and cytokine induction; assay type: in vivo
From the text: (§1) Exposure increased more than dose-proportionally at low doses. Variability in exposure was high. • In vitro plasma protein binding was between 79.6% and 94.2% in animals and humans. Volume of distribution after intravenous dosing was high. […] Main metabolic pathways were oxygenation, hydrogenation, dehydrogenation, dealkylation, acetylation, glucuronidation, and/or glutathione conjugation. • In rats, >80% of drug-related material was found in feces, 11% to 20% in bile, and <4% in urine. […] There were no effects on embryofetal development up to 1 mg/kg/dose in rats and 30 mg/kg/dose in rabbits.

HBV = experiment: anti-HBV activity in vivo in AAV/HBV mice; conditions: 20 mg/kg
[2] = in vitro permeability and P-glycoprotein substrate; assay type: in vitro ADME
From the text: as §1

P-glycoprotein = P-glycoprotein (Homo sapiens, UniProt P08183); experiment: in vitro permeability and P-glycoprotein substrate; assay type: in vitro ADME
From the text: as §1

[3] = respiratory and central nervous system safety pharmacology in rats; conditions: rat, in vivo
From the text: as §1

[4] = Phase 1 multiple dose (Part 2): safety and tolerability in healthy adults; assay type: in vivo, human; conditions: 1.25 mg qw fasted
Procedure: All volunteers were followed up for 4 weeks and safety and tolerability were continuously assessed throughout the study. All adverse events (AEs) were recorded from the time of consent to the completion visit and were graded using the DAIDS toxicity grading scale. Volunteers also underwent physical examinations, electrocardiograms, vital sign checks and clinical laboratory parameters (chemistry, haematology, urinalysis).

P-glycoprotein, sequence (P08183 whole entry): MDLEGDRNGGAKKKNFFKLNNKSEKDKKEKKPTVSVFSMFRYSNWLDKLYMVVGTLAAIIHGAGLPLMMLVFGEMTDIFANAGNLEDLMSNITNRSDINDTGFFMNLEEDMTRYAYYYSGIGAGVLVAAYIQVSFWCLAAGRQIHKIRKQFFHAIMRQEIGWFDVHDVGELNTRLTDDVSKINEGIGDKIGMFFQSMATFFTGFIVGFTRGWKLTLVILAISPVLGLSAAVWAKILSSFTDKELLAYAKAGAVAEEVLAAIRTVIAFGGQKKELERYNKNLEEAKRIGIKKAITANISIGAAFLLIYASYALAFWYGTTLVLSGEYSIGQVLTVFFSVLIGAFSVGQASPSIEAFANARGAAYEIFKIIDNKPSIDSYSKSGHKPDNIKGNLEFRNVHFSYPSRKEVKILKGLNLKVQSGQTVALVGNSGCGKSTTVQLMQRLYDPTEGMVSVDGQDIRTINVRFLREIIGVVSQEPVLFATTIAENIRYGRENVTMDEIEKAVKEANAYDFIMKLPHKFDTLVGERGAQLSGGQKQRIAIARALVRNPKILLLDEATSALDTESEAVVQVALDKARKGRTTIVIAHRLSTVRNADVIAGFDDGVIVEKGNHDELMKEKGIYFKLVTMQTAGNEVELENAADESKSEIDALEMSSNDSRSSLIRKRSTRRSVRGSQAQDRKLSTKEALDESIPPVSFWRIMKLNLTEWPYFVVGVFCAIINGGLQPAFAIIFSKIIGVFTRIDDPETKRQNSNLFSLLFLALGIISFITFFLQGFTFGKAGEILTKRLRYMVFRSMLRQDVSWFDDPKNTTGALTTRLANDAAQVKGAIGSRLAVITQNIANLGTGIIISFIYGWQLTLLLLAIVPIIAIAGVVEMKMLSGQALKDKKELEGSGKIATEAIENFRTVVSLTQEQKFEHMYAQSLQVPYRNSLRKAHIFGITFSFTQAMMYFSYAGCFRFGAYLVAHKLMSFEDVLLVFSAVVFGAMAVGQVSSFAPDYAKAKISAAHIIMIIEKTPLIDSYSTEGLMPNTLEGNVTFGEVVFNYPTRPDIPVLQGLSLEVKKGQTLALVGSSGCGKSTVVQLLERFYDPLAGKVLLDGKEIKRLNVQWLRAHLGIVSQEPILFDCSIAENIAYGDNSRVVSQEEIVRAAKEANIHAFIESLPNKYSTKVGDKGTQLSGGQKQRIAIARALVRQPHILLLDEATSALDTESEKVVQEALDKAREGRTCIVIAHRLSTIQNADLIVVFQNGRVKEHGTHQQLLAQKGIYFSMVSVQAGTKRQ

CCCCOc1nc(N)c2[nH]cc(Cc3ccc(CN4CCCC4)cc3)c2n1 [Compound 4]
cytokine induction (IFN-α, IP-10, IL-1 RA, MCP-1) ([1]; 0.6 mg/kg): induction of 4 of the 14 cytokines tested
cytokine induction ([1]; 0.1 and 0.15 mg/kg): only increases in IP-10 were detected
ISG15, MX1 and OAS1 in peripheral blood ([1]; each dose, 12-24 hours postdose): increase in all 3 major interferon-stimulated genes
dose for which the LEC was observed (minimal target engagement) ([1]; monkey, in vivo): 0.1 mg/kg
tolerability ([1]; single oral 0.05, 0.1, 0.15 and 0.6 mg/kg): well tolerated
HBsAg seroconversion (HBV): in all animals
HBsAg serum levels (HBV): undetectable
time post-treatment reductions in HBsAg levels were sustained (HBV): up to 3 weeks
in vitro permeability [2]: low
P-glycoprotein substrate (P-glycoprotein): P-glycoprotein substrate
effects on respiratory or central nervous system parameters [3]: no relevant effects
ECG actual value: Heart rate (bpm) Low [4]: 0 n (%)
ECG actual value: QTcB (ms) ]450; 480] [4]: 1 (16.7%) n (%)
ECG change from reference: QTcB (ms) >60 [4]: 1 (16.7%) n (%)
ECG change from reference: QTcB (ms) [30; 60] [4]: 1 (16.7%) n (%)
ECG change from reference: QTcF (ms) [30; 60] [4]: 1 (16.7%) n (%)
lab toxicity: Amylase (U/L), upwards, Grade 1 [4]: 2 (33.3%) n (%)
lab toxicity: Amylase (U/L), upwards, Grade 2 [4]: 0 n (%)
lab toxicity: Aspartate aminotransferase (U/L), upwards, Grade 1 [4]: 1 (16.7%) n (%)
lab toxicity: Aspartate aminotransferase (U/L), upwards, Grade 2 [4]: 1 (16.7%) n (%)
lab toxicity: Cholesterol (mmol/L), upwards, Grade 1 [4]: 1 (16.7%) n (%)
lab toxicity: Creatine kinase (U/L), upwards, Grade 3 [4]: 1 (16.7%) n (%)
lab toxicity: Creatine kinase (U/L), upwards, Grade 4 [4]: 1 (16.7%) n (%)
lab toxicity: GFR from creatinine adjusted for BSA (mL/s/1.73m^2), downwards, Grade 2 [4]: 1 (16.7%) n (%)
lab toxicity: Glucose (mmol/L), upwards, Grade 1 [4]: 4 (66.7%) n (%)
lab toxicity: Glucose (mmol/L), upwards, Grade 2 [4]: 2 (33.3%) n (%)
lab toxicity: Potassium (mmol/L), upwards, Grade 1 [4]: 1 (16.7%) n (%)
lab toxicity: Sodium (mmol/L), upwards, Grade 1 [4]: 0 n (%)
lab toxicity: Triglycerides (mmol/L), upwards, Grade 1 [4]: 1 (16.7%) n (%)
lab toxicity: Triglycerides (mmol/L), upwards, Grade 2 [4]: 2 (33.3%) n (%)
subjects with at least one AE [4]: 6 (100%) n (%)
subjects with at least one AE for which any study drug or study was permanently stopped [4]: 1 (16.7%) n (%)
subjects with at least one AE for which any study drug or study was temporarily stopped [4]: 0 n (%)
subjects with at least one AE possibly related to any study drug [4]: 2 (33.3%) n (%)
subjects with at least one AE possibly, probably or very likely related to any study drug [4]: 3 (50.0%) n (%)
subjects with at least one AE probably related to any study drug [4]: 1 (16.7%) n (%)
subjects with at least one AE very likely related to any study drug [4]: 1 (16.7%) n (%)
subjects with at least one SAE [4]: 0 n (%)
subjects with at least one fatal AE [4]: 0 n (%)
subjects with at least one grade 1 AE [4]: 5 (83.3%) n (%)
subjects with at least one grade 2 AE [4]: 1 (16.7%) n (%)
subjects with at least one grade 3 or 4 AE [4]: 0 n (%)
subjects with high values for the monocytes/leukocytes ratio (non-graded) [4]: 4 (66.7%) n (%)
subjects with low erythrocyte count (non-graded) [4]: 3 (50.0%) n (%)
treatment-related AE: Abdominal pain [4]: 0 n (%)
treatment-related AE: Any AE [4]: 3 (50.0%) n (%)
treatment-related AE: Arthralgia [4]: 1 (16.7%) n (%)
treatment-related AE: Dry skin [4]: 1 (16.7%) n (%)
treatment-related AE: Dyspnoea [4]: 1 (16.7%) n (%)
treatment-related AE: Eye disorders [4]: 1 (16.7%) n (%)
treatment-related AE: Gastrointestinal disorders [4]: 1 (16.7%) n (%)
treatment-related AE: Headache [4]: 1 (16.7%) n (%)
treatment-related AE: Nausea [4]: 1 (16.7%) n (%)
treatment-related AE: Nervous system disorders [4]: 1 (16.7%) n (%)
treatment-related AE: Respiratory, thoracic and mediastinal disorders [4]: 1 (16.7%) n (%)
treatment-related AE: Retching [4]: 1 (16.7%) n (%)
treatment-related AE: Retinal exudates [4]: 1 (16.7%) n (%)
treatment-related AE: Skin and subcutaneous tissue disorders [4]: 1 (16.7%) n (%)
vital signs: Respiratory rate (brpm) Grade 1 [4]: 4 (66.7%) n (%)
vital signs: SaO2 (%) 95% to <98% [4]: 5 (83.3%) n (%)
vital signs: Standing DBP (mmHg) Grade 1 [4]: 2 (33.3%) n (%)
vital signs: Standing DBP (mmHg) Grade 2 [4]: 2 (33.3%) n (%)
vital signs: Standing DBP (mmHg) Grade 3 [4]: 2 (33.3%) n (%)
vital signs: Standing SBP (mmHg) Grade 1 [4]: 3 (50.0%) n (%)
vital signs: Standing SBP (mmHg) Grade 2 [4]: 0 n (%)
vital signs: Standing SBP (mmHg) Low [4]: 2 (33.3%) n (%)
vital signs: Standing pulse (bpm) High [4]: 3 (50.0%) n (%)
vital signs: Supine DBP (mmHg) Grade 1 [4]: 2 (33.3%) n (%)
vital signs: Supine SBP (mmHg) Grade 1 [4]: 1 (16.7%) n (%)
vital signs: Supine SBP (mmHg) Low [4]: 0 n (%)
vital signs: Supine pulse (bpm) Low [4]: 1 (16.7%) n (%)
lab toxicity: LDL cholesterol (mmol/L, direct), upwards, Grade 1 ([4]; n = 1 with data): 1 (100.0%) n (%)
lab toxicity: Pancreatic amylase (U/L), upwards, Grade 1 ([4]; n = 2 with data): 1 (50.0%) n (%)

— patent publication US12263172B2, “Toll-like receptor agonists for use in the treatment of hepatitis b” (priority 2019, dated 2025)
